One series deals with T1, A-Raf (Homo sapiens, UniProt P10398).
T1 sequence (P10398 1-606): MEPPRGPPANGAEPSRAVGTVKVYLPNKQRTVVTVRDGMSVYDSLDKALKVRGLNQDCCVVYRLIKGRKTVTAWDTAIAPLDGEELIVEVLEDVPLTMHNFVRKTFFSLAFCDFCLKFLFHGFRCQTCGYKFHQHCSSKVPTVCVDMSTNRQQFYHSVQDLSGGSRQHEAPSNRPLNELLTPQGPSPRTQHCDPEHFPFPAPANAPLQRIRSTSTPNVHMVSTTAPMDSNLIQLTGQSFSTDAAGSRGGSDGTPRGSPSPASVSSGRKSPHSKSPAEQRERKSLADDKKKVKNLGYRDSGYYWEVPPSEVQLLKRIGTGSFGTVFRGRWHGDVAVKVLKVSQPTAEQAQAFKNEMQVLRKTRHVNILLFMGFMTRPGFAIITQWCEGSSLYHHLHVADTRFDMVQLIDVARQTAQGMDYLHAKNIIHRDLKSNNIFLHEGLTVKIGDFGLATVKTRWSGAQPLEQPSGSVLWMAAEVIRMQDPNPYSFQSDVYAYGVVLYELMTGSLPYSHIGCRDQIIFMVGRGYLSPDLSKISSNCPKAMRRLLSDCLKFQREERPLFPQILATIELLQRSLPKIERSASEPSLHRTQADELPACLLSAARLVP
In words: Raf kinase assay (Kinase HotSpot, Reaction Biology Corp.). The series is classed as biochemical. As for the experimental part:
Compounds were delivered into each Raf reaction, followed ∼20 min later by addition of a mixture of ATP and [γ-^33P-ATP] (specific activity approx. 500 cpm/pmol, concentration as required) to a final concentration of 10 µM. […] Then, the reaction was spotted onto a P30 filtermat, and unbound phosphate was removed by washing three times for 5 min in 75 mM phosphoric acid and once in methanol prior to drying and scintillation counting. […] IC50 values and curve fits were obtained using Prism (GraphPad Software, La Jolla, CA).

The target of the next series is C-Raf (Homo sapiens, UniProt P04049). The series is described as above. The series is classed as biochemical. Here is the method: (§1) Compounds were delivered into each Raf reaction, followed ∼20 min later by addition of a mixture of ATP and [γ-^33P-ATP] (specific activity approx. 500 cpm/pmol, concentration as required) to a final concentration of 10 µM. After incubation for 40 min at 25 °C, the reaction was stopped by the addition of a 3% phosphoric acid solution. Then, the reaction was spotted onto a P30 filtermat, and unbound phosphate was removed by washing three times for 5 min in 75 mM phosphoric acid and once in methanol prior to drying and scintillation counting. […] IC50 values and curve fits were obtained using Prism (GraphPad Software, La Jolla, CA).

The next series concerns the target B-Raf (V600E) (Homo sapiens, UniProt P15056, V600E). The series is described as above. The series is classed as biochemical. As for the experimental part:
as §1

Series [1] deals with Huh7 cells xenografted onto CAM. Description: Huh7-xenografted CAM tumour model. The series is classed as in vivo, chick. To be noted: 10 µM final concentration on CAM; Huh7 xenograft. As for the experimental part: Cancer cell xenograft onto chick chorioallantoic membrane (CAM), an in vivo tumour model, was used to evaluate anti-tumour efficacy of compounds. Fertilised chicken eggs purchased from Byeolbichon Farm (Gyeongbuk, South Korea) were incubated at 37 °C with 55% relative humidity. On day 9 of egg incubation (embryonic day 9, E9), a small hole was made in the shell over the air sac after the selection of bifurcated vessels. Another hole was made on the broadside using a needle by applying negative pressure from the wider part, creating false air sac. Using a grinding wheel (Dremel, Racine, WI), a small window (1 cm^2) was created in the eggshell above the false air sac. For generation of xenograft CAM tumour model, Huh7 cells (1.5 × 10^6 cells/CAM) were inoculated on the CAM with or without test drugs (10 µM final concentration). On day 13 of egg incubation (E13), tumour tissues attached to CAM were resected from the embryo and harvested. Photographs of tumour as well as blood vessel branches were taken using optical microscope (Olympus Corporation, Tokyo, Japan). Tumour tissues were weighted and the number of vessel branch points within the tumour region was counted.

Series [2] in a line: Cytotoxicity assay (MTT), normal cells. The series is classed as cell-based, human. Conditions: human, mean ± SEM. As for the experimental part:
Hepatocellular carcinoma cell lines (HepG2, Huh7), human pancreatic ductal epithelial cell line (H6c7), and normal human colon cell line (CCD841) were obtained from the American Type Culture Collection (ATCC) (Manassas, VA, USA). Cells were cultured in DMEM/High Glucose media (Hep3B, Huh7, CCD841) or MEM/EBSS media (HepG2) containing 10% FBS, 100 IU/ml of penicillin and 100 µg/ml of streptomycin. H6c7 cells were cultured in keratinocyte serum free media supplemented with epidermal growth factor and bovine pituitary extract. Cells were maintained in 5% CO2 humidified atmosphere at 37 °C.
Cells were seeded in a 96-well plate and allowed to adhere for 24 h. Cells in low serum (1%)-containing medium were treated with drugs for 48 h. In case of H6c7 cells, cells in keratinocyte serum free media were treated with drugs for 48 h. Then, cell viability was measured using MTT assay. Optical density was measured at 540 nm using a Spectrostar Nano microplate reader (BMG LABTECH).

Another series deals with Huh7 cells. In words: Sphere formation assay. The series is classed as cell-based. Conditions: Homo sapiens, Huh-7, 48 h drug treatment, 13 days culture, read-out: % Inhibition of sphere forming Huh7. As for the experimental part: (§2) Sphere forming ability of Hep3B and Huh7 cells were examined after incubation with drugs for 48 h. Briefly, 3 × 10^3 cells which were pre-treated with or without drugs in prEGM media (Lonza, Basel, Switzerland) were seeded on an ultra-low adhering 24 well plate (Corning Incorporated Costar, Corning, NY). Twice a week, 500 µL of used medium was replaced with fresh prEGM media. At 13 days after plating, images of spheres were captured using Celloger Mini (Curiosis Inc., Seoul, South Korea). The number of spheroids over 50 µm in diameter was counted by using Image J software (National Institute of Health, Bethesda, MD).

The next series concerns Hep3B cells. Description: Sphere formation assay. The series is classed as cell-based. Conditions: Homo sapiens, 48 h drug treatment, 13 days culture, read-out: % Inhibition of sphere forming Hep3B. As for the experimental part: as §2
Another series has as its target T2, VEGFR-2 tyrosine kinase (Homo sapiens, UniProt P35968).
T2 construct: purchased Promega
In words: VEGFR-2 (KDR) kinase assay (ADP-glow). Conditions: fixed concentration 1 µM; read-out: inhibitory activity against VEGFR-2 tyrosine kinase. The series is classed as biochemical.

C-Raf, sequence (P04049 whole entry): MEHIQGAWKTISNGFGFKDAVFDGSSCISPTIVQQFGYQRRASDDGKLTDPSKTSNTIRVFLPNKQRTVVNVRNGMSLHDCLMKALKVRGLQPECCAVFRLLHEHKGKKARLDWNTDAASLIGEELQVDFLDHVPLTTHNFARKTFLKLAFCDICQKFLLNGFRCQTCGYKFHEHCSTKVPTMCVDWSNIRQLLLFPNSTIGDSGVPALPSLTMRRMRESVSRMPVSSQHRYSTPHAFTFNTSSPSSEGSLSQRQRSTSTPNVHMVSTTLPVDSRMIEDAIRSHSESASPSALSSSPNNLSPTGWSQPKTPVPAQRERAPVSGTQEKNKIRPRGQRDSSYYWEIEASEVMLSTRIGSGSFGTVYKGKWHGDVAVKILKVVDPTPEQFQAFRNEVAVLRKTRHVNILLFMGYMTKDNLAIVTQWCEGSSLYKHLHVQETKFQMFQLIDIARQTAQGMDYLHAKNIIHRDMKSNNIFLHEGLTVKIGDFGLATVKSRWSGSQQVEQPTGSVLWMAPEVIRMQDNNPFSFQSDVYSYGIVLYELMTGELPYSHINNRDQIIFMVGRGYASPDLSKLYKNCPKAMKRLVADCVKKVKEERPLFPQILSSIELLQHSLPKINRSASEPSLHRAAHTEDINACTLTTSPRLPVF
B-Raf (V600E), sequence (P15056 whole entry V600E): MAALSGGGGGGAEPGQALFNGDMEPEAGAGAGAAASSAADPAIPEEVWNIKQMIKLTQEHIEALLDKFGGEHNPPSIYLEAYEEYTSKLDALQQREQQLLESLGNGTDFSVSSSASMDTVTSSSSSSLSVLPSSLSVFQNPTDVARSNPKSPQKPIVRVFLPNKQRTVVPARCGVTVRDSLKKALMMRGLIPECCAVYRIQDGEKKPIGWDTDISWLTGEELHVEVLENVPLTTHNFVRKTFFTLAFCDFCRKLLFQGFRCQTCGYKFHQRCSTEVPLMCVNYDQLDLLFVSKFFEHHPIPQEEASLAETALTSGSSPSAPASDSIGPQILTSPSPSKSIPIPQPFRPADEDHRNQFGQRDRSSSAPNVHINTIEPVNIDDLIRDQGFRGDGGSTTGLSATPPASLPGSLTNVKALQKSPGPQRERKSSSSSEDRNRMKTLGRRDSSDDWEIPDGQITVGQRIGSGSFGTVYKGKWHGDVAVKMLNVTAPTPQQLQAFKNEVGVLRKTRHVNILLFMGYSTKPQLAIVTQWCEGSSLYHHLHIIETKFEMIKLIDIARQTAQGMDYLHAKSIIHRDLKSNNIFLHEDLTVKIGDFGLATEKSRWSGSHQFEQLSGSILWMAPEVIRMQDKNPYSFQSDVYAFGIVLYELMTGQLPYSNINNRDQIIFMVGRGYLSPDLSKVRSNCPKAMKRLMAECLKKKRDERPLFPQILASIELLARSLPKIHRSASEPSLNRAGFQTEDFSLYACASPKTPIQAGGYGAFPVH
T2 sequence (P35968 20-1356): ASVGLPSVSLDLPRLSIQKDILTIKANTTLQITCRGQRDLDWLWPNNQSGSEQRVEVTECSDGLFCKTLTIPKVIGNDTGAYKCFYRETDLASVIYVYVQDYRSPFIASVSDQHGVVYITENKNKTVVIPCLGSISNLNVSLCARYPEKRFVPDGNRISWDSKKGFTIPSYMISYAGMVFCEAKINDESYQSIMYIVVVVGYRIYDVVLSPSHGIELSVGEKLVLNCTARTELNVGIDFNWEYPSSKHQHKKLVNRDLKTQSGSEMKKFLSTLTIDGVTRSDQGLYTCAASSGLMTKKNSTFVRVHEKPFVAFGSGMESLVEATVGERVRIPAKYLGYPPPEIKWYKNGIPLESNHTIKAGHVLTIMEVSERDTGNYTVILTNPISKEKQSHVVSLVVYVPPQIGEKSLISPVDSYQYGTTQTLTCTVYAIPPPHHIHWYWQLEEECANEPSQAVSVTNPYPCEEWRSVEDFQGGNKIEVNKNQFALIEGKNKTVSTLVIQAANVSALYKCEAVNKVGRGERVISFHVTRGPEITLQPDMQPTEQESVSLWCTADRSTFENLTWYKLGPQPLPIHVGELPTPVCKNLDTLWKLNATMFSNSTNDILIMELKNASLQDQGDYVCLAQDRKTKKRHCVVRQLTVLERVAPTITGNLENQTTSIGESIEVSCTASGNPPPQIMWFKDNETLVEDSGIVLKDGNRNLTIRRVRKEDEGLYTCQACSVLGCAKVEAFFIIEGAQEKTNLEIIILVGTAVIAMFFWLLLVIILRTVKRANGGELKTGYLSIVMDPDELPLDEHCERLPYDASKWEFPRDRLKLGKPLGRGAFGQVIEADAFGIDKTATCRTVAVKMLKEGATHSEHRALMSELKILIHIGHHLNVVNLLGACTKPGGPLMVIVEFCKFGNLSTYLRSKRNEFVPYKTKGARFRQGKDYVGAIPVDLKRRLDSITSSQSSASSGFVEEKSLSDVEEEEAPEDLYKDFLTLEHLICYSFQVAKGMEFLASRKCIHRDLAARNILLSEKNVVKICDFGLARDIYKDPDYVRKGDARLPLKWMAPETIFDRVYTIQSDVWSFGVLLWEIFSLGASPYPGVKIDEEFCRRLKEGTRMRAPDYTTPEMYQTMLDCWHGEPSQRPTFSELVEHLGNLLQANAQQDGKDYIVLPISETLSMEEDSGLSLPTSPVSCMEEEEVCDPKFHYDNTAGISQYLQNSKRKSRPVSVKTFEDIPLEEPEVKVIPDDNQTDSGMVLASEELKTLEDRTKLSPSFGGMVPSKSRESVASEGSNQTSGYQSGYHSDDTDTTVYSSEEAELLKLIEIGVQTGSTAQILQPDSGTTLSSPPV
Description for VEGFR-2 tyrosine kinase: The VEGFR-2 (KDR) kinase assay was performed with a KDR (Promega, WI, USA) kinase enzyme system using the ADP-glow kinase assay kit (Promega) in accordance with the manufacturer's instructions. […] The reaction was carried out at 25 °C for 1 h in a total volume of 25 µl. Subsequently, 25 µl of ADP-Glow reagent was added to the mixture, and then incubated for 40 min at 25 °C. After the addition of 50 µl of ADP detection reagents for 30 min at 25 °C, luminescence was measured using a Fluostar Omega microplate reader (BMG LABTECH GmbH, Ortenberg, Germany).

Consider `CNC(=O)c1cc(Oc2c(C)nc(NC(=O)Nc3ccc(Cl)c(C(F)(F)F)c3)c(C)c2C)ccn1` [Compound 4, 4-((6–(3-(4-Chloro-3-(trifluoromethyl)phenyl)ureido)-2,4,5-trimethylpyridin-3-yl)oxy)-N-methylpicolinamide], for which the melting point (usually the temperature of the solid-liquid transition) came out at 265 °C. The compound also came in with an inhibition at 1 µM at A-Raf (fixed concentration 1 μM, mean of two independent experiments) of 56%. The concentration for half-maximal inhibition (IC50) (usually the concentration at which inhibition is half-maximal) on A-Raf (mean ± SD of two independent experiments, read-out: In vitro Raf kinase inhibition IC50 A-Raf) came to 312 ± 25.9 nM. The “Inhibition (%) C-Raf” value at C-Raf (fixed concentration 1 μM, mean of two independent experiments, 1 µM) worked out at 84%. Also, the inhibition at 1 µM on C-Raf (fixed concentration 1 μM, mean of two independent experiments, read-out: Inhibition (%) C-Raf) is 84.3%. Further, the IC50 at C-Raf (mean ± SD of two independent experiments, read-out: In vitro Raf kinase inhibition IC50 C-Raf) turned out to be 80 ± 8.1 nM. Also, the inhibition at 1 µM against B-Raf (V600E) (fixed concentration 1 μM, mean of two independent experiments, B-Raf (V599E)) stood at 56.1%. Moreover, on B-Raf (V600E) (mean ± SD of two independent experiments, read-out: In vitro Raf kinase inhibition IC50 B-Raf(V600E)), the IC50 is 650 ± 2.3 nM. Further, in series [1], the “inhibitory effect on tumour weight” value is listed as “weaker than that of sorafenib”. For the same compound, the half-maximal cytotoxic concentration (CC50) (usually the concentration that lowers cell viability or growth by half) at 48 h in series [2] (CCD841 cells (normal colon epithelial cell line)) was over 10000 nM. The compound further had a CC50 at 48 h in series [2] (H6c7 cells (normal pancreatic ductal epithelial cell line)) of over 10000 nM. The inhibition at 1 µM in the series on Huh7 cells (1 μM) came to 31.6%. Also, the inhibition at 10 µM with Huh7 cells (10 μM) turned out to be 50.5%. In the series on Hep3B cells (1 μM), the inhibition at 1 µM worked out at 30.8%. For the same compound, the inhibition at 10 µM with Hep3B cells (10 μM) was 50.6%. In addition, the inhibition at 1 µM on VEGFR-2 tyrosine kinase was about 32%.

(Values after paper PMC8344761 (Journal of Enzyme Inhibition and Medicinal Chemistry, 2021).)
